Experiment [1] addresses T1, STAT6 protein (Homo sapiens, UniProt P42226).
T1 sequence (P42226 1-847): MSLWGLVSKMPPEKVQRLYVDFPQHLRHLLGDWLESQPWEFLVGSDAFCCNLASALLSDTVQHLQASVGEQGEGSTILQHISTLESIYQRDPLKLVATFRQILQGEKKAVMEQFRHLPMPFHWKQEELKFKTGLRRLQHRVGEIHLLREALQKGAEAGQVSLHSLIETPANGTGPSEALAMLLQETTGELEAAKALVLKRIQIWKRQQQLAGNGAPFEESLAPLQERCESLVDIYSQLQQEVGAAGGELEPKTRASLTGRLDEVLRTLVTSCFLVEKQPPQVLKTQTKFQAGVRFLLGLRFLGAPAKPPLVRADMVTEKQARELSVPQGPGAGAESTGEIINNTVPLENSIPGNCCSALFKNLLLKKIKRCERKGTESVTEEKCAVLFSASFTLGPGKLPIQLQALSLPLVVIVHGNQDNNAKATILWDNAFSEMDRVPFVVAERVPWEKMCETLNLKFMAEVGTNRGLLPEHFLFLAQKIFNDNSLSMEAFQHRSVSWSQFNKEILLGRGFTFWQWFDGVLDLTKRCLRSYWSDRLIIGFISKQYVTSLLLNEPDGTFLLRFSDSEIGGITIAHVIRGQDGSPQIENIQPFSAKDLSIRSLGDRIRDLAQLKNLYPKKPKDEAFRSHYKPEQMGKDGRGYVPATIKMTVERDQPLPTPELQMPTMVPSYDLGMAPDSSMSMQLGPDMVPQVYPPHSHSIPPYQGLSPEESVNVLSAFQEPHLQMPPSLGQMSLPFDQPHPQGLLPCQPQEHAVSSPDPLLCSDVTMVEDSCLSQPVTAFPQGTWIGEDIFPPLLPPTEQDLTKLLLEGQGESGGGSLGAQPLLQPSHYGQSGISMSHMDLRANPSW
The experiment can be described thus: Fluorescence polarization (FP) binding assay, STAT6. The conditions noted are these: FP competition, 5 nM fluorescein-labeled tracer, 200 nM protein, PBS pH7.4; read-out: Binding STAT6. A digest of the protocol: (§1)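 Tracer (fluorescein-labeled, 5 nM) was mixed with 200 nM STAT5 and/or STAT6 in PBS pH 7.4 plus 0.01% BGG, 0.01% Tween-20, 2 mM DTT. After 15 min shaking and 1 h at room temperature to equilibrium, polarization was measured and constants derived by nonlinear fitting.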
Background: Polarisation of emitted light reports the rotation of a fluorescent probe.

In experiment [2] the target is T2, STAT5A (Homo sapiens, UniProt P42229).
T2 sequence (P42229 1-794): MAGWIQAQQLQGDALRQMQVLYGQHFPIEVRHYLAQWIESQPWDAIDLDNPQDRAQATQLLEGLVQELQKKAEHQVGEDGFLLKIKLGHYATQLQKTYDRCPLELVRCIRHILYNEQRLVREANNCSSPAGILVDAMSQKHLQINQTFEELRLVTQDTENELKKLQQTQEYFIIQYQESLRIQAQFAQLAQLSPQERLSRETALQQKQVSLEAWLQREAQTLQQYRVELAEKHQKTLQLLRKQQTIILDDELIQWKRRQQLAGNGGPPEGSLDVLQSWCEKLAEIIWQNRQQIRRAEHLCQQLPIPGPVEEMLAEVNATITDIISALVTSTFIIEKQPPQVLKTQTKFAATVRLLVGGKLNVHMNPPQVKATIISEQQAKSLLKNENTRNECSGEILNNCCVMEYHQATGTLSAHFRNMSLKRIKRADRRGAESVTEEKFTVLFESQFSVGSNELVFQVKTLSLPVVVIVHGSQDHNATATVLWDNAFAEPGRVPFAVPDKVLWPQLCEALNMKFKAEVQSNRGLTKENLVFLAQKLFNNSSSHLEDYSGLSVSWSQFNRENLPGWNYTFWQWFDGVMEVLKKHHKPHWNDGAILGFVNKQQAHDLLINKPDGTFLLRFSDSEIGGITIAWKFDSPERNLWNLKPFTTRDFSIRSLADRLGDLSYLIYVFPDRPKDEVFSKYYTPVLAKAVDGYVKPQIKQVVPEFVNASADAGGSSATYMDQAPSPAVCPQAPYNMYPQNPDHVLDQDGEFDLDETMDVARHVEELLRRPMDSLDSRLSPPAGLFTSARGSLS
The experiment can be described thus: Fluorescence polarization (FP) binding assay, STAT5A. The following applies: FP competition, 5 nM fluorescein-labeled tracer, 200 nM protein, PBS pH7.4. A digest of the protocol:
as §1

pKi: −log10 of the molar value. Some results are limits rather than exact numbers.

For the compound `CC(=O)N1CC[C@H]2CC[C@@H](C(=O)Nc3ccc(I)cc3)N2C(=O)[C@@H](NC(=O)/C=C/c2ccc(C(F)(F)P(=O)(O)O)cc2)C1` [Compound 6, ((4-((E)-3-(((5S,8S,10aR)-3-acetyl-8-((4-iodophenyl)carbamoyl)-6-oxodecahydropyrrolo[1,2-a][1,5]diazocin-5-yl)amino)-3-oxoprop-1-en-1-yl)phenyl)difluoromethyl)phosphonic acid], the pKi in experiment [1] was 5.00 to 6.00; in experiment [2] it was < 5.00.

Consider `CC(=O)N1CC[C@H]2CC[C@@H](C(=O)N(C)C(c3ccccc3)c3ccccc3)N2C(=O)[C@@H](NC(=O)c2cc3cc(C(F)(F)P(=O)(O)O)ccc3[nH]2)C1` [Compound 7, ((2-(((5S,8S,10aR)-3-acetyl-8-(benzhydryl(methyl)carbamoyl)-6-oxodecahydropyrrolo[1,2-a][1,5]diazocin-5-yl)carbamoyl)-1H-indol-5-yl)difluoromethyl)phosphonic acid], for which the pKi was 5.00 to 6.00 in experiment [1] and < 5.00 in experiment [2].

Turning to `NCCCC[C@H](NC(=O)/C=C/c1ccc(C(F)(F)P(=O)(O)O)cc1)C(=O)N1CCC[C@H]1C(=O)N1CCc2ccccc2C1` [Compound 8, ((4-((E)-3-(((S)-6-amino-1-oxo-1-((S)-2-(1,2,3,4-tetrahydroisoquinoline-2-carbonyl)pyrrolidin-1-yl)hexan-2-yl)amino)-3-oxoprop-1-en-1-yl)phenyl)difluoromethyl)phosphonic acid], the pKi in experiment [1] and in experiment [2] was < 5.00 in each case.

For the compound `NCCCC[C@H](NC(=O)c1cc2cc(C(F)(F)P(=O)(O)O)ccc2[nH]1)C(=O)N1CCC[C@H]1C(=O)N1CCc2ccccc2C1` [Compound 9, ((2-(((S)-6-amino-1-oxo-1-((S)-2-(1,2,3,4-tetrahydroisoquinoline-2-carbonyl)pyrrolidin-1-yl)hexan-2-yl)carbamoyl)-1H-indol-5-yl)difluoromethyl)phosphonic acid], the pKi is 5.00 to 6.00 in experiment [1] and < 5.00 in experiment [2].

Turning to `CC(C)(C)[C@H](NC(=O)c1cc2cc(C(F)(F)P(=O)(O)O)ccc2[nH]1)C(=O)N1CCC[C@H]1C(=O)N[C@@H]1CCCc2ccccc21` [Compound 10, ((2-(((S)-3,3-dimethyl-1-oxo-1-((S)-2-(((R)-1,2,3,4-tetrahydronaphthalen-1-yl)carbamoyl)pyrrolidin-1-yl)butan-2-yl)carbamoyl)-1H-indol-5-yl)difluoromethyl)phosphonic acid], the pKi in experiment [1] is 5.00 to 6.00; in experiment [2], < 5.00.

Consider `CC(C)(C)[C@H](NC(=O)c1cc2cc(C(F)(F)P(=O)(O)O)ccc2[nH]1)C(=O)N1CCC[C@H]1C(=O)N[C@H]1CCCc2ccccc21` [Compound 11, ((2-(((S)-3,3-dimethyl-1-oxo-1-((S)-2-(((S)-1,2,3,4-tetrahydronaphthalen-1-yl)carbamoyl)pyrrolidin-1-yl)butan-2-yl)carbamoyl)-1H-indol-5-yl)difluoromethyl)phosphonic acid], for which the figures for the pKi in experiment [1] and in experiment [2] were 5.00 to 6.00 and < 5.00, respectively.

Consider `CC(C)(C)[C@H](NC(=O)c1cc2cc(C(F)(F)P(=O)(O)O)ccc2[nH]1)C(=O)N1CCC[C@H]1C(=O)NC1CCc2ccccc21` (stereo partly drawn) [Compound 12, ((2-(((2S)-1-((2S)-2-((2,3-dihydro-1H-inden-1-yl)carbamoyl)pyrrolidin-1-yl)-3,3-dimethyl-1-oxobutan-2-yl)carbamoyl)-1H-indol-5-yl)difluoromethyl)phosphonic acid], for which the pKi was 5.00 to 6.00 in experiment [1] and < 5.00 in experiment [2].

On to `CC(C)(C)[C@H](NC(=O)c1cc2cc(C(F)(F)P(=O)(O)O)ccc2[nH]1)C(=O)N1CCC[C@H]1C(=O)N1CCN(c2ccccc2)CC1` [Compound 13, ((2-(((S)-3,3-dimethyl-1-oxo-1-((S)-2-(4-phenylpiperazine-1-carbonyl)pyrrolidin-1-yl)butan-2-yl)carbamoyl)-1H-indol-5-yl)difluoromethyl)phosphonic acid], for which the pKi in experiment [1] was 5.00 to 6.00; in experiment [2], < 5.00.

`CC(C)(C)[C@H](NC(=O)c1cc2cc(C(F)(F)P(=O)(O)O)ccc2[nH]1)C(=O)N1CCC[C@H]1C(=O)NC(c1ccccc1)c1ccccc1` [Compound 14, ((2-(((S)-1-((S)-2-(benzhydrylcarbamoyl)pyrrolidin-1-yl)-3,3-dimethyl-1-oxobutan-2-yl)carbamoyl)-1H-indol-5-yl)difluoromethyl)phosphonic acid]: the figures for the pKi in experiment [1] and in experiment [2] were 5.00 to 6.00 and < 5.00, respectively.

In the case of `CC(C)(C)[C@H](NC(=O)c1cc2cc(C(F)(F)P(=O)(O)O)ccc2[nH]1)C(=O)N1CCC[C@H]1C(=O)Nc1ccc2ccccc2c1` [Compound 15, ((2-(((S)-3,3-dimethyl-1-((S)-2-(naphthalen-2-ylcarbamoyl)pyrrolidin-1-yl)-1-oxobutan-2-yl)carbamoyl)-1H-indol-5-yl)difluoromethyl)phosphonic acid], the pKi in experiment [1] and in experiment [2] was 5.00 to 6.00 each time.

For `CC(C)(C)[C@H](NC(=O)c1cc2cc(C(F)(F)P(=O)(O)O)ccc2[nH]1)C(=O)N1CCC[C@H]1C(=O)N[C@@H]1C[C@H]1c1ccccc1` [Compound 16, ((2-(((S)-3,3-dimethyl-1-oxo-1-((S)-2-(((1R,2S)-2-phenylcyclopropyl)carbamoyl)pyrrolidin-1-yl)butan-2-yl)carbamoyl)-1H-indol-5-yl)difluoromethyl)phosphonic acid], the pKi in experiment [1] is 5.00 to 6.00; in experiment [2] it was < 5.00.

As for `CC(C)(C)[C@H](NC(=O)c1cc2cc(C(F)(F)P(=O)(O)O)ccc2[nH]1)C(=O)N1CCC[C@H]1c1nc(Cc2ccccc2)cs1` [Compound 17, ((2-(((S)-1-((S)-2-(4-benzylthiazol-2-yl)pyrrolidin-1-yl)-3,3-dimethyl-1-oxobutan-2-yl)carbamoyl)-1H-indol-5-yl)difluoromethyl)phosphonic acid], the pKi in experiment [1] and in experiment [2] was 5.00 to 6.00 each time.

Regarding `CC(C)(C)[C@H](NC(=O)/C=C/c1ccc(C(F)(F)P(=O)(O)O)cc1)C(=O)N1CCC[C@H]1c1nc(Cc2ccccc2)cs1` [Compound 18, ((4-((E)-3-(((S)-1-((S)-2-(4-benzylthiazol-2-yl)pyrrolidin-1-yl)-3,3-dimethyl-1-oxobutan-2-yl)amino)-3-oxoprop-1-en-1-yl)phenyl)difluoromethyl)phosphonic acid], the pKi in experiment [1] and in experiment [2] was < 5.00 in each case.

As to `CC(C)(C)[C@H](NC(=O)c1cc2cc(C(F)(F)P(=O)(O)O)ccc2[nH]1)C(=O)N1CCC[C@H]1c1nc(-c2ccccc2)cs1` [Compound 19, ((2-(((S)-3,3-dimethyl-1-oxo-1-((S)-2-(4-phenylthiazol-2-yl)pyrrolidin-1-yl)butan-2-yl)carbamoyl)-1H-indol-5-yl)difluoromethyl)phosphonic acid], the pKi in experiment [1] is 5.00 to 6.00; in experiment [2] it was < 5.00.

For `CC(C)(C)[C@H](NC(=O)/C=C/c1ccc(C(F)(F)P(=O)(O)O)cc1)C(=O)N1CCC[C@H]1c1nc(-c2ccccc2)cs1` [Compound 20, ((4-((E)-3-(((S)-3,3-dimethyl-1-oxo-1-((S)-2-(4-phenylthiazol-2-yl)pyrrolidin-1-yl)butan-2-yl)amino)-3-oxoprop-1-en-1-yl)phenyl)difluoromethyl)phosphonic acid], the pKi in experiment [1] and in experiment [2] was < 5.00 each time.

Values taken from patent US20230295200A1 (REGENTS OF THE UNIVERSITY OF MICHIGAN, priority 2022, published 2023).
